This passage reports relative viability results from the supplement of paper PMC10307832.

Common to all, as to test: relative viability (nuclei count vs DMSO), 5 days (fraction); higher = more cells survive
Compound in the experiment “RAF265 + Olaparib”: Cn1c(Nc2ccc(C(F)(F)F)cc2)nc2cc(Oc3ccnc(-c4ncc(C(F)(F)F)[nH]4)c3)ccc21 [RAF265] + O=C(c1cc(Cc2n[nH]c(=O)c3ccccc23)ccc1F)N1CCN(C(=O)C2CC2)CC1 [Olaparib] (partner 8 µM)
In a few lines: (§1)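 Lung cancer cell lines were seeded in 1536-well plates and dosed by pin tool the next day, with either a single drug or a fixed anchor-drug dose combined with five library-drug doses (not always all listed) spaced in √10 steps. Five days later, one step fixed the cells and stained their nuclei (final 0.05% Triton X-100, 1% formaldehyde, 1 ug/ml Hoechst), and nuclei were counted on 4× images. Relative viability is the nuclei count in treated wells divided by the count in vehicle wells, and each value is the median of duplicate plates.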

Compound in the experiment “Doramapimod + Trametinib”: Cc1ccc(-n2nc(C(C)(C)C)cc2NC(=O)Nc2ccc(OCCN3CCOCC3)c3ccccc23)cc1 [Doramapimod] + CC(=O)Nc1cccc(-n2c(=O)n(C3CC3)c(=O)c3c(Nc4ccc(I)cc4F)n(C)c(=O)c(C)c32)c1 [Trametinib] (partner 0.02 µM)
In a few lines: as §1

Compound in the experiment “RAF265 + AZD7762”: Cn1c(Nc2ccc(C(F)(F)F)cc2)nc2cc(Oc3ccnc(-c4ncc(C(F)(F)F)[nH]4)c3)ccc21 [RAF265] + NC(=O)Nc1cc(-c2cccc(F)c2)sc1C(=O)N[C@H]1CCCNC1 [AZD7762] (partner 0.2 µM)
In a few lines:
as §1

Compound in the experiment “IPA-3 + Trametinib”: C1=CC=C2C(=C1)C=CC(=C2SSC3=C(C=CC4=CC=CC=C43)O)O [IPA-3] + CC(=O)Nc1cccc(-n2c(=O)n(C3CC3)c(=O)c3c(Nc4ccc(I)cc4F)n(C)c(=O)c(C)c32)c1 [Trametinib] (partner 0.02 µM)
In outline:
as §1

For PC-3 [JPC-3], the relative viability with RAF265 + Olaparib (first compound 0.01 µM) came to 1.14; with RAF265 + Olaparib (first compound 0.03162 µM), 1.06; with RAF265 + Olaparib (first compound 0.1 µM), 1.09; with RAF265 + Olaparib (first compound 0.3162 µM) it was 0.537; with RAF265 + Olaparib (first compound 1 µM), 0.704; in the experiment with Doramapimod + Trametinib (first compound 0.02 µM), 0.849. For the same cell line, the relative viability with Doramapimod + Trametinib (first compound 0.06325 µM) is 0.726; with Doramapimod + Trametinib (first compound 0.2 µM), 0.748; in the experiment with Doramapimod + Trametinib (first compound 0.6325 µM), 0.839; in the experiment with Doramapimod + Trametinib (first compound 2 µM), 0.845; in the experiment with RAF265 + AZD7762 (first compound 0.01 µM) it was 0.879; with RAF265 + AZD7762 (first compound 0.03162 µM), 0.771. Besides, the relative viability with RAF265 + AZD7762 (first compound 0.1 µM) was 0.742; with RAF265 + AZD7762 (first compound 0.3162 µM) it was 0.445; with RAF265 + AZD7762 (first compound 1 µM), 0.479; in the experiment with IPA-3 + Trametinib (first compound 0.2 µM) it was 0.785; with IPA-3 + Trametinib (first compound 0.6325 µM), 0.713; with IPA-3 + Trametinib (first compound 2 µM), 0.744. The relative viability with IPA-3 + Trametinib (first compound 6.325 µM) was found to be 0.705; with IPA-3 + Trametinib (first compound 20 µM), 0.699.

Regarding PC-14, the relative viability came to 0.252 in the experiment with RAF265 + Olaparib (first compound 0.01 µM); 0.311 with RAF265 + Olaparib (first compound 0.03162 µM); 0.314 with RAF265 + Olaparib (first compound 0.1 µM); 0.369 with RAF265 + Olaparib (first compound 0.3162 µM); 0.245 with RAF265 + Olaparib (first compound 1 µM); 0.756 with Doramapimod + Trametinib (first compound 0.02 µM). Further, the relative viability with Doramapimod + Trametinib (first compound 0.06325 µM) is 0.864; in the experiment with Doramapimod + Trametinib (first compound 0.2 µM) it was 0.782; in the experiment with Doramapimod + Trametinib (first compound 0.6325 µM), 0.856; in the experiment with Doramapimod + Trametinib (first compound 2 µM), 0.619; in the experiment with RAF265 + AZD7762 (first compound 0.01 µM), 0.424; with RAF265 + AZD7762 (first compound 0.03162 µM), 0.451. The relative viability with RAF265 + AZD7762 (first compound 0.1 µM) stood at 0.369; in the experiment with RAF265 + AZD7762 (first compound 1 µM) it was 0.378; with IPA-3 + Trametinib (first compound 0.2 µM), 1.23; in the experiment with IPA-3 + Trametinib (first compound 0.6325 µM), 0.654; with IPA-3 + Trametinib (first compound 2 µM), 0.699; in the experiment with IPA-3 + Trametinib (first compound 6.325 µM), 0.634. Also, the relative viability with IPA-3 + Trametinib (first compound 20 µM) was 0.918.

Take RERF-LC-KJ: the relative viability with RAF265 + Olaparib (first compound 0.01 µM) worked out at 0.952; with RAF265 + Olaparib (first compound 0.03162 µM), 0.892; with RAF265 + Olaparib (first compound 0.1 µM), 0.759; with RAF265 + Olaparib (first compound 0.3162 µM) it was 0.682; with RAF265 + Olaparib (first compound 1 µM), 0.575; with Doramapimod + Trametinib (first compound 0.02 µM), 0.969. Moreover, the relative viability in the experiment with Doramapimod + Trametinib (first compound 0.06325 µM) was 0.881; with Doramapimod + Trametinib (first compound 0.2 µM) it was 0.901; with Doramapimod + Trametinib (first compound 0.6325 µM), 0.984; with Doramapimod + Trametinib (first compound 2 µM), 0.885; with RAF265 + AZD7762 (first compound 0.01 µM) it was 1.1; with RAF265 + AZD7762 (first compound 0.03162 µM) it was 1.03. For the same cell line, the relative viability in the experiment with RAF265 + AZD7762 (first compound 0.1 µM) came out at 0.765; with RAF265 + AZD7762 (first compound 0.3162 µM), 0.756; with RAF265 + AZD7762 (first compound 1 µM), 0.557; with IPA-3 + Trametinib (first compound 0.2 µM) it was 1.01; in the experiment with IPA-3 + Trametinib (first compound 0.6325 µM), 0.877; with IPA-3 + Trametinib (first compound 2 µM), 0.84. Further, the values for the relative viability with IPA-3 + Trametinib (first compound 6.325 µM) and with IPA-3 + Trametinib (first compound 20 µM) were 0.872 and 0.891, respectively.

On to SW 900, for which the relative viability in the experiment with RAF265 + Olaparib (first compound 0.01 µM) amounted to 0.89; in the experiment with RAF265 + Olaparib (first compound 0.03162 µM), 0.725; in the experiment with RAF265 + Olaparib (first compound 0.1 µM), 0.79; with RAF265 + Olaparib (first compound 0.3162 µM), 0.716; in the experiment with RAF265 + Olaparib (first compound 1 µM), 0.27; with Doramapimod + Trametinib (first compound 0.02 µM), 0.761. The relative viability is 0.875 with Doramapimod + Trametinib (first compound 0.06325 µM); 0.974 with Doramapimod + Trametinib (first compound 0.2 µM); 0.749 with Doramapimod + Trametinib (first compound 0.6325 µM); 0.769 with Doramapimod + Trametinib (first compound 2 µM); 0.709 with RAF265 + AZD7762 (first compound 0.01 µM); 0.483 in the experiment with RAF265 + AZD7762 (first compound 0.03162 µM). In addition, the relative viability with RAF265 + AZD7762 (first compound 0.1 µM) turned out to be 0.671; with RAF265 + AZD7762 (first compound 0.3162 µM), 0.466; in the experiment with RAF265 + AZD7762 (first compound 1 µM) it was 0.348; with IPA-3 + Trametinib (first compound 0.2 µM), 0.939; in the experiment with IPA-3 + Trametinib (first compound 0.6325 µM) it was 0.497; in the experiment with IPA-3 + Trametinib (first compound 2 µM), 0.752. Also, the relative viability was 0.675 in the experiment with IPA-3 + Trametinib (first compound 6.325 µM) and 0.938 with IPA-3 + Trametinib (first compound 20 µM).
